Measurements from US20230085307A1, “PYRIDAZINONE COMPOUND AND HERBICIDE” (NISSAN CHEMICAL CORPORATION, priority 2019, published 2023).

Assays:
velvetleaf [1] = assay: Test Example 5: herbicidal effect by foliage application, plastic box (Table 20, symbol M); assay type: in vivo, velvetleaf (Abutilon theophrasti); conditions: foliage application, three weeks after application
Summary of the method: (§1)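 Plants sown in sterilized diluvial soil and grown 14 days in a greenhouse at 25° C to 30° C, then sprayed on the foliage with the compound's emulsion diluted in water to a predetermined herbicide amount. Injury to weeds and crops scored three weeks after application on a visual rating scale.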

rice flat sedge = assay: Test Example 3: herbicidal effect by foliage application, Wagner pot (Table 18, symbol E); assay type: in vivo, rice flat sedge (Cyperus iria)
Summary of the method: (§2)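 Plants were sown in alluvial soil held under 0.1–0.5 cm standing water and grown 14 days in a greenhouse at 25–30 °C. An emulsifiable formulation, water-diluted to the set dose, was then sprayed onto the foliage, and effects were scored three weeks later using previously defined criteria.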

persian speedwell [2] = assay: Test Example 5: herbicidal effect by foliage application, plastic box (Table 20, symbol R); assay type: in vivo, Persian speedwell (Veronica persica); conditions: foliage application, three weeks after application
Summary of the method: as §1

velvetleaf [3] = assay: Test Example 4: herbicidal effect by soil treatment (Table 19, symbol M); assay type: in vivo, velvetleaf (Abutilon theophrasti)
Summary of the method: (§3)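 Seeds were sown in sterilized diluvial soil and covered with about 1.5 cm of soil. An emulsion formulation diluted with water to a predetermined herbicide amount was sprayed evenly onto the soil surface. Plants grew in a greenhouse at 25° C. to 30° C., and the effect was scored three weeks after application using criteria from an earlier test.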

chickweed [4] = assay: Test Example 5: herbicidal effect by foliage application, plastic box (Table 20, symbol P); assay type: in vivo, common chickweed (Stellaria media); conditions: foliage application, three weeks after application
Summary of the method: as §1

Italian ryegrass [5] = assay: Test Example 4: herbicidal effect by soil treatment (Table 19, symbol K); assay type: in vivo, Italian ryegrass (Lolium multiflorum)
Summary of the method: as §3

redroot pigweed [6] = assay: Test Example 5: herbicidal effect by foliage application, plastic box (Table 20, symbol N); assay type: in vivo, redroot pigweed (Amaranthus retroflexus); conditions: foliage application, three weeks after application
Summary of the method: as §1

wild oat [7] = assay: Test Example 4: herbicidal effect by soil treatment (Table 19, symbol I); assay type: in vivo, wild oat (Avena fatua)
Summary of the method: as §3

persian speedwell [8] = assay: Test Example 4: herbicidal effect by soil treatment (Table 19, symbol R); assay type: in vivo, Persian speedwell (Veronica persica)
Summary of the method: as §3

blackgrass [9] = assay: Test Example 5: herbicidal effect by foliage application, plastic box (Table 20, symbol J); assay type: in vivo, blackgrass (Alopecurus myosuroides); conditions: foliage application, three weeks after application
Summary of the method: as §1

Chinese sprangletop = assay: Test Example 3: herbicidal effect by foliage application, Wagner pot (Table 18, symbol D); assay type: in vivo, chinese sprangletop (Leptochloa chinensis)
Summary of the method: as §2

lambsquarters [10] = assay: Test Example 4: herbicidal effect by soil treatment (Table 19, symbol O); assay type: in vivo, lambsquarters (Chenopodium album)
Summary of the method: as §3

barnyard grass [11] = assay: Test Example 5: herbicidal effect by foliage application, plastic box (Table 20, symbol H); assay type: in vivo, barnyard grass (Echinochloa crus-galli); conditions: foliage application, three weeks after application
Summary of the method: as §1

redroot pigweed [12] = assay: Test Example 4: herbicidal effect by soil treatment (Table 19, symbol N); assay type: in vivo, redroot pigweed (Amaranthus retroflexus)
Summary of the method: as §3

blackgrass [13] = assay: Test Example 4: herbicidal effect by soil treatment (Table 19, symbol J); assay type: in vivo, blackgrass (Alopecurus myosuroides)
Summary of the method: as §3

chickweed [14] = assay: Test Example 4: herbicidal effect by soil treatment (Table 19, symbol P); assay type: in vivo, common chickweed (Stellaria media)
Summary of the method: as §3

southern crabgrass [15] = assay: Test Example 5: herbicidal effect by foliage application, plastic box (Table 20, symbol F); assay type: in vivo, southern crabgrass (Digitaria ciliaris); conditions: foliage application, three weeks after application
Summary of the method: as §1

wild oat [16] = assay: Test Example 5: herbicidal effect by foliage application, plastic box (Table 20, symbol I); assay type: in vivo, wild oat (Avena fatua); conditions: foliage application, three weeks after application
Summary of the method: as §1

barnyard grass [17] = assay: Test Example 3: herbicidal effect by foliage application, Wagner pot (Table 18, symbol H); assay type: in vivo, barnyard grass (Echinochloa crus-galli)
Summary of the method: as §2

windgrass [18] = assay: Test Example 4: herbicidal effect by soil treatment (Table 19, symbol L); assay type: in vivo, windgrass (Apera spica-venti)
Summary of the method: as §3

barnyard grass [19] = assay: Test Example 4: herbicidal effect by soil treatment (Table 19, symbol H); assay type: in vivo, barnyard grass (Echinochloa crus-galli)
Summary of the method: as §3

lambsquarters [20] = assay: Test Example 5: herbicidal effect by foliage application, plastic box (Table 20, symbol O); assay type: in vivo, lambsquarters (Chenopodium album); conditions: foliage application, three weeks after application
Summary of the method: as §1

green foxtail [21] = assay: Test Example 5: herbicidal effect by foliage application, plastic box (Table 20, symbol G); assay type: in vivo, green foxtail (Setaria viridis); conditions: foliage application, three weeks after application
Summary of the method: as §1

green foxtail [22] = assay: Test Example 4: herbicidal effect by soil treatment (Table 19, symbol G); assay type: in vivo, green foxtail (Setaria viridis)
Summary of the method: as §3

southern crabgrass [23] = assay: Test Example 4: herbicidal effect by soil treatment (Table 19, symbol F); assay type: in vivo, southern crabgrass (Digitaria ciliaris)
Summary of the method: as §3

Italian ryegrass [24] = assay: Test Example 5: herbicidal effect by foliage application, plastic box (Table 20, symbol K); assay type: in vivo, Italian ryegrass (Lolium multiflorum); conditions: foliage application, three weeks after application
Summary of the method: as §1

windgrass [25] = assay: Test Example 5: herbicidal effect by foliage application, plastic box (Table 20, symbol L); assay type: in vivo, windgrass (Apera spica-venti); conditions: foliage application, three weeks after application
Summary of the method: as §1

## Cc1nn(C)c(=O)c(-c2c(-c3cccc(C#N)c3)sc3ccccc23)c1O [1-123]
Velvetleaf [1]; AAH 296 g/ha
  M: velvetleaf, herbicidal effect: 5 (Herbicidal rate of 90% or more (almost completely withered))
Rice flat sedge; 296 g/ha
  herbicidal effect on E (rice flat sedge), rating 0-5: 3 (Herbicidal rate of 40% or more and less than 70%)
Persian speedwell [2]; AAH 296 g/ha
  R: persian speedwell, herbicidal effect: 1 (Herbicidal rate of 5% or more and less than 20%)
Velvetleaf [3]; AAH 296 g/ha
  M: velvetleaf, herbicidal effect rating: 0 (Herbicidal rate of 5% or less (almost no effect))
Chickweed [4]; AAH 296 g/ha
  P: chickweed, herbicidal effect: 5 (Herbicidal rate of 90% or more (almost completely withered))
Italian ryegrass [5]; AAH 296 g/ha
  K: Italian ryegrass, herbicidal effect rating: 0 (Herbicidal rate of 5% or less (almost no effect))
Redroot pigweed [6]; AAH 296 g/ha
  N: redroot pigweed, herbicidal effect: 5 (Herbicidal rate of 90% or more (almost completely withered))
Wild oat [7]; AAH 296 g/ha
  I: wild oat, herbicidal effect rating: 0 (Herbicidal rate of 5% or less (almost no effect))
Persian speedwell [8]; AAH 296 g/ha
  R: persian speedwell, herbicidal effect rating: 3 (Herbicidal rate of 40% or more and less than 70%)
Blackgrass [9]; AAH 296 g/ha
  J: blackgrass, herbicidal effect: 0 (Herbicidal rate of 5% or less (almost no effect))
Chinese sprangletop; 296 g/ha
  herbicidal effect on D (Chinese sprangletop), rating 0-5: 3 (Herbicidal rate of 40% or more and less than 70%)
Lambsquarters [10]; AAH 296 g/ha
  O: lambsquarters, herbicidal effect rating: 4 (Herbicidal rate of 70% or more and less than 90%)
Barnyard grass [11]; AAH 296 g/ha
  H: barnyard grass, herbicidal effect: 0 (Herbicidal rate of 5% or less (almost no effect))
Redroot pigweed [12]; AAH 296 g/ha
  N: redroot pigweed, herbicidal effect rating: 4 (Herbicidal rate of 70% or more and less than 90%)
Blackgrass [13]; AAH 296 g/ha
  J: blackgrass, herbicidal effect rating: 0 (Herbicidal rate of 5% or less (almost no effect))
Chickweed [14]; AAH 296 g/ha
  P: chickweed, herbicidal effect rating: 1 (Herbicidal rate of 5% or more and less than 20%)
Southern crabgrass [15]; AAH 296 g/ha
  F: southern crabgrass, herbicidal effect: 0 (Herbicidal rate of 5% or less (almost no effect))
Wild oat [16]; AAH 296 g/ha
  I: wild oat, herbicidal effect: 0 (Herbicidal rate of 5% or less (almost no effect))
Barnyard grass [17]; 296 g/ha
  herbicidal effect on H (barnyard grass), rating 0-5: 3 (Herbicidal rate of 40% or more and less than 70%)
Windgrass [18]; AAH 296 g/ha
  L: windgrass, herbicidal effect rating: 0 (Herbicidal rate of 5% or less (almost no effect))
Barnyard grass [19]; AAH 296 g/ha
  H: barnyard grass, herbicidal effect rating: 0 (Herbicidal rate of 5% or less (almost no effect))
Lambsquarters [20]; AAH 296 g/ha
  O: lambsquarters, herbicidal effect: 3 (Herbicidal rate of 40% or more and less than 70%)
Green foxtail [21]; AAH 296 g/ha
  G: green foxtail, herbicidal effect: 0 (Herbicidal rate of 5% or less (almost no effect))
Green foxtail [22]; AAH 296 g/ha
  G: green foxtail, herbicidal effect rating: 0 (Herbicidal rate of 5% or less (almost no effect))
Southern crabgrass [23]; AAH 296 g/ha
  F: southern crabgrass, herbicidal effect rating: 0 (Herbicidal rate of 5% or less (almost no effect))
Italian ryegrass [24]; AAH 296 g/ha
  K: Italian ryegrass, herbicidal effect: 0 (Herbicidal rate of 5% or less (almost no effect))
Windgrass [25]; AAH 296 g/ha
  L: windgrass, herbicidal effect: 0 (Herbicidal rate of 5% or less (almost no effect))

## CCCC(=O)Oc1c(C)nn(C)c(=O)c1-c1c(-c2cccc(C#N)c2)sc2ccccc12 [1-124]
Velvetleaf [1]; AAH 320 g/ha
  M: velvetleaf, herbicidal effect: 3 (Herbicidal rate of 40% or more and less than 70%)
Rice flat sedge; 320 g/ha
  herbicidal effect on E (rice flat sedge), rating 0-5: 3 (Herbicidal rate of 40% or more and less than 70%)
Persian speedwell [2]; AAH 320 g/ha
  R: persian speedwell, herbicidal effect: 1 (Herbicidal rate of 5% or more and less than 20%)
Velvetleaf [3]; AAH 320 g/ha
  M: velvetleaf, herbicidal effect rating: 0 (Herbicidal rate of 5% or less (almost no effect))
Chickweed [4]; AAH 320 g/ha
  P: chickweed, herbicidal effect: 0 (Herbicidal rate of 5% or less (almost no effect))
Italian ryegrass [5]; AAH 320 g/ha
  K: Italian ryegrass, herbicidal effect rating: 0 (Herbicidal rate of 5% or less (almost no effect))
Redroot pigweed [6]; AAH 320 g/ha
  N: redroot pigweed, herbicidal effect: 4 (Herbicidal rate of 70% or more and less than 90%)
Wild oat [7]; AAH 320 g/ha
  I: wild oat, herbicidal effect rating: 0 (Herbicidal rate of 5% or less (almost no effect))
Persian speedwell [8]; AAH 320 g/ha
  R: persian speedwell, herbicidal effect rating: 0 (Herbicidal rate of 5% or less (almost no effect))
Blackgrass [9]; AAH 320 g/ha
  J: blackgrass, herbicidal effect: 0 (Herbicidal rate of 5% or less (almost no effect))
Chinese sprangletop; 320 g/ha
  herbicidal effect on D (Chinese sprangletop), rating 0-5: 2 (Herbicidal rate of 20% or more and less than 40%)
Lambsquarters [10]; AAH 320 g/ha
  O: lambsquarters, herbicidal effect rating: 0 (Herbicidal rate of 5% or less (almost no effect))
Barnyard grass [11]; AAH 320 g/ha
  H: barnyard grass, herbicidal effect: 0 (Herbicidal rate of 5% or less (almost no effect))
Redroot pigweed [12]; AAH 320 g/ha
  N: redroot pigweed, herbicidal effect rating: 0 (Herbicidal rate of 5% or less (almost no effect))
Blackgrass [13]; AAH 320 g/ha
  J: blackgrass, herbicidal effect rating: 0 (Herbicidal rate of 5% or less (almost no effect))
Chickweed [14]; AAH 320 g/ha
  P: chickweed, herbicidal effect rating: 3 (Herbicidal rate of 40% or more and less than 70%)
Southern crabgrass [15]; AAH 320 g/ha
  F: southern crabgrass, herbicidal effect: 0 (Herbicidal rate of 5% or less (almost no effect))
Wild oat [16]; AAH 320 g/ha
  I: wild oat, herbicidal effect: 0 (Herbicidal rate of 5% or less (almost no effect))
Barnyard grass [17]; 320 g/ha
  herbicidal effect on H (barnyard grass), rating 0-5: 0 (Herbicidal rate of 5% or less (almost no effect))
Windgrass [18]; AAH 320 g/ha
  L: windgrass, herbicidal effect rating: 0 (Herbicidal rate of 5% or less (almost no effect))
Barnyard grass [19]; AAH 320 g/ha
  H: barnyard grass, herbicidal effect rating: 0 (Herbicidal rate of 5% or less (almost no effect))
Lambsquarters [20]; AAH 320 g/ha
  O: lambsquarters, herbicidal effect: 3 (Herbicidal rate of 40% or more and less than 70%)
Green foxtail [21]; AAH 320 g/ha
  G: green foxtail, herbicidal effect: 0 (Herbicidal rate of 5% or less (almost no effect))
Green foxtail [22]; AAH 320 g/ha
  G: green foxtail, herbicidal effect rating: 0 (Herbicidal rate of 5% or less (almost no effect))
Southern crabgrass [23]; AAH 320 g/ha
  F: southern crabgrass, herbicidal effect rating: 0 (Herbicidal rate of 5% or less (almost no effect))
Italian ryegrass [24]; AAH 320 g/ha
  K: Italian ryegrass, herbicidal effect: 0 (Herbicidal rate of 5% or less (almost no effect))
Windgrass [25]; AAH 320 g/ha
  L: windgrass, herbicidal effect: 0 (Herbicidal rate of 5% or less (almost no effect))
